A word on the IC50: it is the concentration needed to halve the response being measured. The term Kd denotes the constant that tells how readily two partners part at equilibrium. What is called Ki is a measure of affinity in units of concentration, obtained from inhibition or displacement. A low value points to tighter binding.

The record followed here is ChEMBL document CHEMBL4330131, “The identification of novel small-molecule inhibitors targeting WDR5-MLL1 interaction through fluorescence polarization based high-throughput screening” (Bioorg Med Chem Lett, 2019).

Assay [1] addresses Protein arginine N-methyltransferase 1 (Homo sapiens, UniProt Q99873). The assay is described as follows: Inhibition of PRMT1 (unknown origin) using SAM as substrate preincubated for 15 mins followed by substrate addition and measured after 1 hr by Alphalisa assay.
Assay [2] addresses T1, Histone-lysine N-methyltransferase EHMT2 (Homo sapiens, UniProt Q96KQ7).
T1 sequence (Q96KQ7 whole entry): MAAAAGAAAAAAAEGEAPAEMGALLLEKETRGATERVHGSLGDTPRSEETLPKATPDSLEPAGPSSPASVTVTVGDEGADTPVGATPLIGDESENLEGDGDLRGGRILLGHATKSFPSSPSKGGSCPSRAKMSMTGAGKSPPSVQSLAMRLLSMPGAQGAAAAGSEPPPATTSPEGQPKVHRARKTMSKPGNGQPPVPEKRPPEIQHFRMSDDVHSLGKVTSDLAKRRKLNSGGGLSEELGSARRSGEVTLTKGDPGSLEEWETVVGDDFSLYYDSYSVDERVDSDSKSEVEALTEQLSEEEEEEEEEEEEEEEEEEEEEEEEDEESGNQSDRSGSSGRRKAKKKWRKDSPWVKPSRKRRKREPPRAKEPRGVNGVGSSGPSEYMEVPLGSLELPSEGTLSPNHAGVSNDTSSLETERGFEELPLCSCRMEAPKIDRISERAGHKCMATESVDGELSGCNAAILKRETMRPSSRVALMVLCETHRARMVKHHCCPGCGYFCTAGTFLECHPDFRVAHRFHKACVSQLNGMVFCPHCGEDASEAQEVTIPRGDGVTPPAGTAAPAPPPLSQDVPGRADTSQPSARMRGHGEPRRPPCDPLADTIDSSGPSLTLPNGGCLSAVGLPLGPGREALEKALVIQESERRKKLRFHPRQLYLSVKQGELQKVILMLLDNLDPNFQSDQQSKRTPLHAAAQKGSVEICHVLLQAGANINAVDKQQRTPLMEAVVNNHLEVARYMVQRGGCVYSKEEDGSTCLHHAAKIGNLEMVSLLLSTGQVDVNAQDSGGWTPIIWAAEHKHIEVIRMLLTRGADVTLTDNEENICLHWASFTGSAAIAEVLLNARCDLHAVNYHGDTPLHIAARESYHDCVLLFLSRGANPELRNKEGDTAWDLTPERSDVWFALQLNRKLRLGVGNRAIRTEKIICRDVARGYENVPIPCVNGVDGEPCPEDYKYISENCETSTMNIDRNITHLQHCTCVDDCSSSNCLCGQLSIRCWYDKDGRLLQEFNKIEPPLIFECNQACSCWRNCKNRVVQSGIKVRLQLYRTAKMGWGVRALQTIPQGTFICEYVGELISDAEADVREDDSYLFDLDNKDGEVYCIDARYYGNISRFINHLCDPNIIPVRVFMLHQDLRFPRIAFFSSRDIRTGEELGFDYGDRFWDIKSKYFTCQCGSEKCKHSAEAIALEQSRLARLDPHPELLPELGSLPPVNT
The assay is described as follows: Inhibition of G9a (unknown origin) using SAM as substrate preincubated for 15 mins followed by substrate addition and measured after 1 hr by Alphalisa assay.

Assay [3] has as its target Histone-lysine N-methyltransferase 2D (Homo sapiens, UniProt O14686). Description: Inhibition of MLL2 (unknown origin) using SAM as substrate preincubated for 15 mins followed by substrate addition and measured after 1 hr by Alphalisa assay.
The target in assay [4] is T2, WD repeat-containing protein 5 (Homo sapiens, UniProt P61964). The assay is described as follows: Displacement of Ac-ARTEVHLRKS-(Ahx)-(Ahx)-K(5-FAM)-NH2 from recombinant full-length human N-terminal His6-tagged WDR5 (1 to 334 residues) expressed in Escherichia coli BL21 (DE3) after 2 hrs by fluorescence polarization assay. A general note: In fluorescence polarisation assays a small probe gives low polarisation when free and higher when bound to something large.

Assay [5] concerns the target T2, WD repeat-containing protein 5. The assay is described as follows: Binding affinity to recombinant full-length human N-terminal His6-tagged WDR5 (1 to 334 residues) expressed in Escherichia coli BL21 (DE3) by surface plasmon resonance analysis. A general note: In SPR one partner is held on a chip, and binding of the other changes the refractive index at the surface.

A further assay deals with MV4-11. Description: Antiproliferative activity against human MV4-11 cells harboring MLL-AF4 fusion protein assessed as cell growth inhibition after 5 days by Celltiter-Glo luminescent assay. The class given is functional, cell-based. Conditions: MV4-11, 120 h. For orientation: Cellular ATP, detected with luciferase, serves as a proxy for viable cell number.
Another assay deals with K562. The assay is described as follows: Antiproliferative activity against human K562 cells assessed as cell growth inhibition after 5 days by Celltiter-Glo luminescent assay. The class given is functional, cell-based. Conditions: K562, 120 h.
Assay [6] concerns the target Histone-lysine N-methyltransferase SETD1B (Homo sapiens, UniProt Q9UPS6). The assay is described as follows: Inhibition of SETD1B (unknown origin) using SAM as substrate preincubated for 15 mins followed by substrate addition and measured after 1 hr by Alphalisa assay.
For assay [7], the target named is T2, WD repeat-containing protein 5. The assay is described as follows: Displacement of 5-FAM labelled tracer from WDR5 (unknown origin) by fluorescence polarization assay.
The target is the same in assay [8]. Description: Displacement of fluorescence-labelled Ac-ARA peptide from WDR5 (unknown origin) by fluorescence polarization assay.

Each structure is given as a SMILES string. Bounds are passed on as bounds.

Chain of Protein arginine N-methyltransferase 1 (Q99873 whole entry): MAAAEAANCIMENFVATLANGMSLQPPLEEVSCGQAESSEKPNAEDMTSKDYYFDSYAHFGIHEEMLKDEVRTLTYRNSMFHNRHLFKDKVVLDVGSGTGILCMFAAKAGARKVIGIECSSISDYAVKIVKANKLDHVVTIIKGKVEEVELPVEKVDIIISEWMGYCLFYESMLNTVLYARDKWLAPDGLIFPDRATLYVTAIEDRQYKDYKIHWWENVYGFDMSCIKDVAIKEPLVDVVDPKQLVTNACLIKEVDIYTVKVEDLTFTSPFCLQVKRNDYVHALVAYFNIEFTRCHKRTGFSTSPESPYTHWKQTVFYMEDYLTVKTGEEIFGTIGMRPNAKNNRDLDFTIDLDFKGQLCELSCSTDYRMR
Chain of Histone-lysine N-methyltransferase SETD1B (Q9UPS6 whole entry): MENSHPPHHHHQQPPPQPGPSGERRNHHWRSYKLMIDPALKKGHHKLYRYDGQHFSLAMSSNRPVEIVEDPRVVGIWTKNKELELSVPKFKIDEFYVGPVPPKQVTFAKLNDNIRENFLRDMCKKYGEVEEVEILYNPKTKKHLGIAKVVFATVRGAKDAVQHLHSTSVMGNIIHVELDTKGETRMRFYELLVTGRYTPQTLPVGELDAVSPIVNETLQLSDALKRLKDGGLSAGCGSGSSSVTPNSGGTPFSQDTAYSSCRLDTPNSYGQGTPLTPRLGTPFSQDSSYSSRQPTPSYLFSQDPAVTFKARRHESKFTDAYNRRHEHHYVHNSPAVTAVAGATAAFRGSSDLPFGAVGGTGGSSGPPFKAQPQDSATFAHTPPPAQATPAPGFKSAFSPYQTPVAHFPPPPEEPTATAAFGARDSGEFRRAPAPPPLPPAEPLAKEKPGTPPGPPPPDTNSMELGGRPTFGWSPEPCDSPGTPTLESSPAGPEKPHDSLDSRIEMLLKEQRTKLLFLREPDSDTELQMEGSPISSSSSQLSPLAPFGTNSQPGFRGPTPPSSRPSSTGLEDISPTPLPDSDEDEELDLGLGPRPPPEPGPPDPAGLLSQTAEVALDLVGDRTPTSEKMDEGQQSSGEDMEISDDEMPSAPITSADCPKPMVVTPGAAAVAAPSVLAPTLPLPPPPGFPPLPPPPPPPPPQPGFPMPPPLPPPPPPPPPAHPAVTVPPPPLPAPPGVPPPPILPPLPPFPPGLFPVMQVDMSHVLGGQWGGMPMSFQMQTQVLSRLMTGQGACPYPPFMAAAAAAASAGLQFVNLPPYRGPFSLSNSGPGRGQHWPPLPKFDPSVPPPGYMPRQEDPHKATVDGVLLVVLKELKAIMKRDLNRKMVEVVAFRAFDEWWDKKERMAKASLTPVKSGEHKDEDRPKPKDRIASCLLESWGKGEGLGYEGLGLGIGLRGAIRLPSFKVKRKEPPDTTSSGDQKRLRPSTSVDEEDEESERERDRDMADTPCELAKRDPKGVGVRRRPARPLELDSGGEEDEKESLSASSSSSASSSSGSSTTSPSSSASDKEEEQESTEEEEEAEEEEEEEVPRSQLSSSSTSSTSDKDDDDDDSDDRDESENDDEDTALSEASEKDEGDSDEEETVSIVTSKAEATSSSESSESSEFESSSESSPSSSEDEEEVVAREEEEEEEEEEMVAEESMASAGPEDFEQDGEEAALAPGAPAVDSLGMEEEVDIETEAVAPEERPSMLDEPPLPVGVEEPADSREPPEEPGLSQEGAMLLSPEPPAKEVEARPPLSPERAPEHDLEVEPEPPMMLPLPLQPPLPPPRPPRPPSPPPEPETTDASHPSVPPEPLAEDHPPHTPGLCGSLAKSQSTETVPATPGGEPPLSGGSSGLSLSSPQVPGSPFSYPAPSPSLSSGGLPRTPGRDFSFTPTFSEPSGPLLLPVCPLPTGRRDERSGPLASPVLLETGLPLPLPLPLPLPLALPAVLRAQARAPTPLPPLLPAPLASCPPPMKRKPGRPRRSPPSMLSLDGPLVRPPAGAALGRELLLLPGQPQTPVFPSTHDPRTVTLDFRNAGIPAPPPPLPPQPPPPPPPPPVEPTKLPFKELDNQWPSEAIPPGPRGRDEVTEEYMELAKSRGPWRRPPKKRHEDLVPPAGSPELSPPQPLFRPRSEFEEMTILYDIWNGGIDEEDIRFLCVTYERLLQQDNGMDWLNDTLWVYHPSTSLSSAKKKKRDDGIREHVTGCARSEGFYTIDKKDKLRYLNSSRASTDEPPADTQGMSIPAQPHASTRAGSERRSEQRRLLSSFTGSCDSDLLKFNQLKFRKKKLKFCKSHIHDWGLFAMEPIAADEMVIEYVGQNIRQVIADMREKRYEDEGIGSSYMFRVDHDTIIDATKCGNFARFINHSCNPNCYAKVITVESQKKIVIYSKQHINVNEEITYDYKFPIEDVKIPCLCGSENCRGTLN

As to `CCCCOc1ccc(S(=O)(=O)Nc2ccc(C(=O)O)cc2)cc1C`, the IC50 was over 100 µM in [1]; over 100 µM in assay [2]; over 100 µM in [3]; 13 µM in [4]; 31.2 µM with MV4-11; 72.1 µM in the assay on K562. In addition, the IC50 in assay [6] was over 100 µM. Moreover, the Kd in [5] was determined as 15.8 µM.
Take `CCCCOc1ccc(S(=O)(=O)Nc2ccccc2C(=O)O)cc1C`: in assay [4], the IC50 came to 22 µM.
Consider `CCCCOc1ccc(S(=O)(=O)Nc2cccc(C(=O)O)c2)cc1C`, for which the IC50 in assay [4] worked out at 30 µM.
In the case of `CCC(CC)(NC(=O)C(C)C)C(=O)N[C@@H](CCCNC(=N)N)C(=O)NC1(C(=O)NC(c2ccc(Cl)cc2)c2ccc(Cl)cc2)CCCC1`, the Ki in assay [7] was under 0.001 µM. The molecule also came in with an IC50 in assay [8] of 0.0045 µM.
Regarding `O=C(O)c1cc(NS(=O)(=O)c2ccc(Cl)cc2)cc(C(=O)O)c1`, in [4], the IC50 is 22 µM.
Consider `COc1ccc(S(=O)(=O)Nc2ccc(C(=O)O)cc2)cc1C(C)(C)C`, for which, in assay [4], the IC50 came out at 48 µM.
Regarding `Cc1c(Cl)ccc(S(=O)(=O)Nc2cccc(C(=O)O)c2)c1Cl`, the IC50 in assay [4] fell in the range of 13 to 13.1 µM.
